Reference: paper PMC4926073, “Absorption and Transport of Sea Cucumber Saponins from Apostichopus japonicus” (Marine Drugs, 2016)
Like-named read-outs stand apart in the source and are kept apart here.

Assays:
Caco-2 cell monolayer [1] = conditions: human
in vivo [2] = conditions: male, Wistar, rat, iv, 20 mg/kg
in vitro = conditions: human; for recovery: Caco-2, Recovery (AP + BL chambers + cell monolayer)
[3] = Single-pass intestinal perfusion in rats; conditions: for concentration-dependent changes in permeability: 1, 5, 25 μg/mL
Protocol: (§1) Data were expressed as the means ± SD of three determinations: Peff = −Q ln [Cout/Cin]/2πrl(2)
(§2) In which Cin is the inlet concentration and Cout is the outlet concentration of compound, which is corrected for volume change in the segment using phenol red concentration in the inlet and outlet tubing. Q is the flow rate (0.2 mL/min), r is the rat intestinal radius (0.18 cm), and l is the length of the segment [32].
(§3) The rats were anaesthetized with an intra-abdominal injection of 10% chloral hydrate at a dose of 5 mL/kg. The enterocoelia of the rat was dissected by a 3–4 cm midline length, a segment of intestine about 10 cm long was separated and washed with saline. Silicone tubing was inserted into both sides of the segment of intestine and a peristaltic pump was connected to the proximal side of the tube. A pledget with saline was added onto the surgical area to avoid loss of fluid. The segment was cleared with 37 °C saline firstly, then blank K-R buffer solution was infused at the inlet and blank perfusate was collected at the outlet. The segment was infused with perfusate containing phenol red and different concentrations of sea cucumber saponins (1, 5, and 25 μg/mL) at a flow rate of 2 mL/min. Then the rate was reduced to 0.2 mL/min for 30 min until steady-state. Samples were obtained from the outlet of the segment every 15 min and stored at −20 °C for analysis. Different concentrations of sea cucumber saponins were perfused to highlight the absorption mechanism of sea cucumber saponins, which were investigated by the concentration-dependent change of the permeability values. 400 μg/mL verapamil was added to the perfusion solution containing 5 μg/mL sea cucumber saponins and 20 μg/mL phenol red to investigate whether the intestinal absorption of sea cucumber saponins were affected by P-gp.

Caco-2 cell monolayer [4] = experiment: Transepithelial transport across Caco-2 cell monolayer
[5] = In vivo pharmacokinetics in rats after oral administration; conditions: 20 mg/kg
[6] = Freeze-thaw, short-term and long-term stability in rat plasma; conditions: for Short-Term Stability, Accuracy (%): ambient temperature 24 h; for Long-Term Stability, Accuracy (%): ambient temperature 5 d
[7] = Freeze-thaw, short-term and long-term stability in perfusate (Krebs-Ringer buffer solution); conditions: for Short-Term Stability, Accuracy (%): ambient temperature 24 h; for Long-Term Stability, Accuracy (%): ambient temperature 5 d
[8] = rat
[9] = rat, in vivo, 20 mg/kg
[10] = rat; remark: listed apart in the source
Protocol: as §1, §2, §3

in vivo [11] = conditions: rat
Protocol: as §1, §2, §3

[12] = nominal conc. 100.00 ng/mL, frozen at −20 °C 24 h, thawed at ambient temperature
[13] = range over freeze-thaw, short-term, long-term and both compounds

Compound: CO[C@@H]1[C@@H](O)[C@H](O[C@@H]2[C@@H](O)[C@H](O[C@H]3[C@H](O)[C@@H](O)[C@H](O[C@H]4[C@H](O[C@H]5CC[C@]6(C)C7=C[C@H](O)[C@]89C(=O)O[C@@](C)(CCCC(C)C)[C@@]8(O)CC[C@@]9(C)C7CCC6C5(C)C)OC[C@@H](OS(=O)(=O)O)[C@@H]4O)O[C@@H]3C)O[C@H](CO)[C@H]2O)O[C@H](CO)[C@H]1O (stereo partly shown) [Echinoside A]
- Papp AP-BL (Caco-2 cell monolayer [1]): 4.04 ± 0.39 × 10^−6, cm·s^−1
- Papp BL-AP (Caco-2 cell monolayer [1]): 5.33 ± 0.70 × 10^−6, cm·s^−1
- AUC (in vivo [2]): 16400 ± 450 ng·h/mL
- Cmax (in vivo [2]): 4000 ± 440 ng/mL
- Tmax (in vivo [2]): 4.8 min
- half-life (in vivo [2]): 8.52 ± 0.32 h
- Papp A→B (in vitro; Caco-2): 3.96 ± 0.55 ×10⁻⁶ cm/s
- Papp B→A (in vitro; Caco-2): 5.38 ± 0.81 ×10⁻⁶ cm/s
- recovery (in vitro; time 60 min): 97.4 ± 2.76%
- recovery (in vitro; time 90 min): 98.2 ± 1.97%
- recovery (in vitro; time 120 min): 96.6 ± 2.33%
- recovery (in vitro; time 150 min): 96.5 ± 2.04%
- concentration-dependent changes in permeability ([3]; rat single-pass intestinal perfusion): not found
- change in permeability when verapamil was added to the perfusate ([3]; rat single-pass intestinal perfusion, verapamil 400 μg/mL): No significant increase
- Papp ([3]; rat, other: single-pass intestinal perfusion): 25 ×10⁻⁶ cm/s
- AP Chamber (%) recovered (Caco-2 cell monolayer [4]; time 60 min): 82.14 ± 2.85%
- BL Chamber (%) recovered (Caco-2 cell monolayer [4]; time 60 min): 1.04 ± 0.12%
- Cell Fraction (%) recovered (Caco-2 cell monolayer [4]; time 60 min): 14.22 ± 1.14%
- AP Chamber (%) recovered (Caco-2 cell monolayer [4]; time 90 min): 81.63 ± 2.04%
- BL Chamber (%) recovered (Caco-2 cell monolayer [4]; time 90 min): 1.51 ± 0.11%
- Cell Fraction (%) recovered (Caco-2 cell monolayer [4]; time 90 min): 15.05 ± 1.29%
- AP Chamber (%) recovered (Caco-2 cell monolayer [4]; time 120 min): 80.25 ± 2.67%
- BL Chamber (%) recovered (Caco-2 cell monolayer [4]; time 120 min): 1.90 ± 0.20%
- Cell Fraction (%) recovered (Caco-2 cell monolayer [4]; time 120 min): 14.43 ± 1.24%
- AP Chamber (%) recovered (Caco-2 cell monolayer [4]; time 150 min): 79.38 ± 2.21%
- BL Chamber (%) recovered (Caco-2 cell monolayer [4]; time 150 min): 2.36 ± 0.21%
- Cell Fraction (%) recovered (Caco-2 cell monolayer [4]; time 150 min): 14.78 ± 0.92%
- transport mechanism across Caco-2 monolayer (Caco-2 cell monolayer [4]; with and without P-gp inhibitor verapamil 100 μM): transported by passive diffusion without the participation of P-gp
- bioavailability ([5]; male, Wistar, rat, in vivo): 59%
- AUC ([5]; male, Wistar, rat, in vivo, po): 9270 ± 390 ng·h/mL
- Cmax ([5]; male, Wistar, rat, in vivo, po): 910 ± 20 ng/mL
- half-life ([5]; male, Wistar, rat, in vivo, po, T1/2, rat): 6.99 h
- Tmax ([5]; male, Wistar, rat, in vivo, po, Tmax): ≤ 3 h
- time at which detected in rat plasma after oral administration ([5]; oral): 1 h
- T1/2 ([5]; rat, oral): 6.9 ± 0.32 h
- max value of the concentration in the plasma ([5]; rat, oral): 910 ng/mL
- Short-Term Stability, Accuracy (%) ([6]; nominal conc. 100.00 ng/mL): 95.4%
- Long-Term Stability, Accuracy (%) ([6]; nominal conc. 100.00 ng/mL): 97.2%
- Freeze-Thaw Stability, Accuracy (%) [6, 12]: 94.4%
- Freeze-Thaw Stability, Accuracy (%) ([6]; nominal conc. 1000.00 ng/mL): 96.7%
- Short-Term Stability, Accuracy (%) ([6]; nominal conc. 1000.00 ng/mL): 96.0%
- Long-Term Stability, Accuracy (%) ([6]; nominal conc. 1000.00 ng/mL): 102.1%
- Freeze-Thaw Stability, Accuracy (%) ([6]; nominal conc. 5000.00 ng/mL): 98.9%
- Short-Term Stability, Accuracy (%) ([6]; nominal conc. 5000.00 ng/mL): 102.4%
- Long-Term Stability, Accuracy (%) ([6]; nominal conc. 5000.00 ng/mL): 100.3%
- stability in plasma under three conditions [6, 13]: 93.4%–102.4
- Short-Term Stability, Accuracy (%) ([7]; nominal conc. 100.00 ng/mL): 90.8%
- Long-Term Stability, Accuracy (%) ([7]; nominal conc. 100.00 ng/mL): 89.2%
- Freeze-Thaw Stability, Accuracy (%) [7, 12]: 91.6%
- Freeze-Thaw Stability, Accuracy (%) ([7]; nominal conc. 1000.00 ng/mL): 91.9%
- Short-Term Stability, Accuracy (%) ([7]; nominal conc. 1000.00 ng/mL): 91.3%
- Long-Term Stability, Accuracy (%) ([7]; nominal conc. 1000.00 ng/mL): 92.6%
- Freeze-Thaw Stability, Accuracy (%) ([7]; nominal conc. 5000.00 ng/mL): 93.5%
- Short-Term Stability, Accuracy (%) ([7]; nominal conc. 5000.00 ng/mL): 94.4%
- Long-Term Stability, Accuracy (%) ([7]; nominal conc. 5000.00 ng/mL): 91.1%
- stability in perfusate under three conditions [7, 13]: 88.2%–94.8

Compound: C=C(C)CCCC1(C)OC(=O)C23CC=C4C(CCC5C4(C)CCC(OC4OCC(OC6OC(CO)C(O)C(OC7OC(CO)C(O)C(OC)C7O)C6O)C(O)C4OC4OC(C)C(OC6OCC(O)C(OC7OC(CO)C(O)C(OC)C7O)C6O)C(O)C4O)C5(C)C)C2(C)CC(=O)C13 (stereo not shown) [Holotoxin A1]
- stability in plasma under three conditions [8]: 93.4%–102.4
- detection in the plasma after oral administration [9]: not detected
- Papp AP-BL (Caco-2 cell monolayer [1]): <0.83 × 10^−6, cm·s^−1
- PappAB (Papp AP to BL) (Caco-2 cell monolayer [1]): less than 0.83 × 10^−6 cm·s^−1
- change in permeability when verapamil was added to the perfusate [10]: No significant increase
- AUC (in vivo [2]): 6530 ± 150 ng·h/mL
- Cmax (in vivo [2]): 2870 ± 170 ng/mL
- Tmax (in vivo [2]): 4.8 min
- half-life (in vivo [2]): 4.4 ± 0.06 h
- Papp (in vivo [11]): 2.67 ×10⁻⁶ cm/s
- Papp A→B (in vitro; Caco-2): < 0.83 ×10⁻⁶ cm/s
- Papp B→A (in vitro; Caco-2): < 0.83 ×10⁻⁶ cm/s
- concentration-dependent changes in permeability [3]: not found
- AP Chamber (%) recovered (Caco-2 cell monolayer [4]; time 60 min): 97.66 ± 2.02%
- AP Chamber (%) recovered (Caco-2 cell monolayer [4]; time 90 min): 96.56 ± 1.89%
- AP Chamber (%) recovered (Caco-2 cell monolayer [4]; time 120 min): 95.46 ± 1.72%
- AP Chamber (%) recovered (Caco-2 cell monolayer [4]; time 150 min): 95.90 ± 2.27%
- BL Chamber (%) recovered (Caco-2 cell monolayer [4]; time 150 min): <0.2%
- Cell Fraction (%) recovered (Caco-2 cell monolayer [4]; time 150 min): <0.2%

Compound: CC(C)NCC(O)COc1cccc2ccccc12 (stereo not shown) [propranolol, reference compound]
- Papp A→B at 150 min, 20 µM (in vitro; Caco-2): 26.1 ± 1.2 ×10⁻⁶ cm/s
